Assay results from ChEMBL document CHEMBL3797052 (Eur J Med Chem, 2016).

System: ACHN
Assay: Antiproliferative activity against human ACHN cells assessed as growth inhibition after 48 hrs by sulforhodamine B assay
Assay type: functional
Settings: not given
In the case of `CNC(=O)c1cc(Oc2ccc(NC(=O)Nc3ccc(Cl)c(C(F)(F)F)c3)cc2)ccn1` [SORAFENIB], the GI50 is reported as 2.51 µM and the TGI is reported as 12.6 µM.

System: MDA-MB-435
Assay: Antiproliferative activity against human MDA-MB-435 cells assessed as growth inhibition after 48 hrs by sulforhodamine B assay
Assay type: functional
Settings: MDA-MB-435, 48 h
For `CNC(=O)c1cc(Oc2ccc(NC(=O)Nc3ccc(Cl)c(C(F)(F)F)c3)cc2)ccn1` [SORAFENIB], the TGI was 3.98 µM.

Same assay, conditions: MDA-MB-435, 48 h, read-out: LC50 (the source's name)
Work on `CNC(=O)c1cc(Oc2ccc(NC(=O)Nc3ccc(Cl)c(C(F)(F)F)c3)cc2)ccn1` [SORAFENIB] yielded a CC50 of 10 µM.

System: not listed separately
Assay: Antiproliferative activity against human UO31 cells assessed as growth inhibition after 48 hrs by sulforhodamine B assay
Assay type: functional
Settings: UO-31, 48 h
Work on `CNC(=O)c1cc(Oc2ccc(NC(=O)Nc3ccc(Cl)c(C(F)(F)F)c3)cc2)ccn1` [SORAFENIB] yielded a GI50 of 2.51 µM and a TGI of 7.94 µM.

Same assay, conditions: UO-31, 48 h, read-out: LC50 (the source's name)
Molecule `CNC(=O)c1cc(Oc2ccc(NC(=O)Nc3ccc(Cl)c(C(F)(F)F)c3)cc2)ccn1` [SORAFENIB] has a CC50 of 39.8 µM.

System: T47D
Assay: Antiproliferative activity against human T47D cells assessed as growth inhibition after 48 hrs by sulforhodamine B assay
Assay type: functional
Settings: not given
`CNC(=O)c1cc(Oc2ccc(NC(=O)Nc3ccc(Cl)c(C(F)(F)F)c3)cc2)ccn1` [SORAFENIB] showed a TGI of 7.94 µM.

Same assay, conditions: read-out: LC50 (the source's name)
`CNC(=O)c1cc(Oc2ccc(NC(=O)Nc3ccc(Cl)c(C(F)(F)F)c3)cc2)ccn1` [SORAFENIB] gave a CC50 of 31.6 µM.

System: not listed separately
Assay: Antiproliferative activity against human HCC2998 cells assessed as growth inhibition after 48 hrs by sulforhodamine B assay
Assay type: functional
Settings: HCC 2998, 48 h
With `CNC(=O)c1cc(Oc2ccc(NC(=O)Nc3ccc(Cl)c(C(F)(F)F)c3)cc2)ccn1` [SORAFENIB] the GI50 was 3.16 µM and the TGI was 3.16 µM.

Same assay, conditions: HCC 2998, 48 h, read-out: LC50 (the source's name)
Work on `CNC(=O)c1cc(Oc2ccc(NC(=O)Nc3ccc(Cl)c(C(F)(F)F)c3)cc2)ccn1` [SORAFENIB] yielded a CC50 of 6.31 µM.

System: CCRF-CEM
Assay: Antiproliferative activity against human CCRF-CEM cells assessed as growth inhibition after 48 hrs by sulforhodamine B assay
Assay type: functional
Settings: not given
Molecule `CNC(=O)c1cc(Oc2ccc(NC(=O)Nc3ccc(Cl)c(C(F)(F)F)c3)cc2)ccn1` [SORAFENIB] has a GI50 of 2 µM and a TGI of 100 µM.

Same assay, conditions: read-out: LC50 (the source's name)
With `CNC(=O)c1cc(Oc2ccc(NC(=O)Nc3ccc(Cl)c(C(F)(F)F)c3)cc2)ccn1` [SORAFENIB] the CC50 was 100 µM.

System: K562
Assay: Antiproliferative activity against human K562 cells assessed as growth inhibition after 48 hrs by sulforhodamine B assay
Assay type: functional
Settings: K562, 48 h
With `CNC(=O)c1cc(Oc2ccc(NC(=O)Nc3ccc(Cl)c(C(F)(F)F)c3)cc2)ccn1` [SORAFENIB] the GI50 was 3.16 µM and the TGI was 100 µM.

Same assay, conditions: K562, 48 h, read-out: LC50 (the source's name)
`CNC(=O)c1cc(Oc2ccc(NC(=O)Nc3ccc(Cl)c(C(F)(F)F)c3)cc2)ccn1` [SORAFENIB] showed a CC50 of 100 µM.
